The values that follow come from patent publication US11466007B2, “Substituted lactams showing serotonin 5-HT receptor activity” (Sumitomo Pharma Co., Ltd., priority 2018, dated 2022).

One may read the pKi as the Ki on a negative log10 scale, so that one unit is a factor of ten. What is called pEC50 is −log10 of the EC50, conventionally taken in molar units. Lower therefore signals a high EC50. The Emax is the maximal effect, on the per cent scale that the assay sets. As usually defined, the pIC50 is the IC50 on a negative log10 scale, so that one unit is a factor of ten.

A short description of series [1]: Test 4: metabolic stability test in human hepatic microsome. In kind it is in vitro ADME. As to conditions: 0.1 mg/mL microsome, 0.1 μmol/L compound, NADPH, 37° C., 30 minutes. The essentials: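 Test compound at 0.1 μmol/L incubated 30 min at 37° C with human liver microsomes (0.1 mg/mL) and NADPH (3.2 mmol/L) in 25 mmol/L phosphate buffer, pH 7.4. Residual compound quantified by LC-MS; clearance (mL/min/mg protein) = −LN(residual ratio)/30/0.1.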

The nature of series [2]: Test 10: intracerebral transferability of rats (Kp,uu,brain). In kind it is in vivo, SD or WKY rats. Particulars: rat, brain and plasma, unbound drug concentration ratio brain/plasma, s.c. or oral, 0.5, 1 or 2 hours. As for the experimental part: Test 10: Evaluation of Intracerebral Transferability (Test for Intracerebral Transferability of Rats)
In this test, intracerebral transferability of the present compounds was evaluated by the following method. The present compounds were subcutaneously administered as a solution in saline, or orally administered as a suspension in methyl cellulose to 7-week-old SD or WKY rats. Plasma and brain were collected on 0.5 hours, 1 hour, or 2 hours after the administration to measure the drug concentrations in plasma and brain by LC-MS.
Binding rates of the present compound to plasma and brain protein were measured by equilibrium dialysis method.
Kp,uu,brain (unbound drug concentration ratio between brain/plasma) can be calculated by applying the compound concentrations in plasma and brain and the binding rates to plasma and brain protein obtained from the above test into the following formula. Kp,uu,brain=(Compound concentration in brain×(100−Binding rate to brain protein (%))/100)/(Compound concentration in plasma×(100−Binding rate to plasma protein (%))/100)

For series [3], the target named is T1, human 5-HT2A receptor (Homo sapiens (Human), UniProt P28223). The series can be described thus: Test 1: binding activity for human 5-HT2A receptor ([3H]Ketanserin). As to conditions: CHO cell membrane fraction. As to the method:
(§1) Test 1: Evaluation of Binding Activity for Human 5-HT1A Receptor, Human 5-HT2A Receptor, and Human D2 Receptor
(§2) Binding affinity of the present compound for human 5-HT1A receptor, human 5-HT2A receptor, and human D2 receptor was measured by the following procedures.
(§3) Each mixture was incubated at room temperature for 60 minutes. Then, the mixture was added quickly on a glassfiber filter plate (Multiscreen FB, Millipore, Inc.) coated with 0.3% aqueous polyethylenimine, and vacuum-filtered. Radioactivity remaining on the filter was measured with a liquid scintillation counter (PerkinElmer, Inc.). Binding inhibition rate was calculated from the following formula.
Ki of each compound was calculated from the following formula. Binding inhibition constant (Ki)=IC50/(1+S/Kd) wherein S is concentration of ligand; Kd is a binding dissociation constant of ligand to membrane, which is calculated from a saturated binding experiment conducted with the same cell membrane. A small Ki value means strong binding ability to a receptor.

The target of series [4] is T2, human 5-HT1A receptor (Homo sapiens (Human), UniProt P08908). Nature of the series: Test 2: agonist activity for human 5-HT1A receptor ([35S]GTPγS binding). In kind it is biochemical. As to the method:
Test 2: Evaluation of Agonist Activity for Human 5-HT1A Receptor
CHO cell membrane fraction in which human 5-HT1A receptor was expressed as used in Test 1 was purchased. To a buffer containing guanosine diphosphate were added a test compound dissolved in DMSO, each receptor membrane sample diluted with buffer, and [^35S] Guanosine 5′-O-[gamma-thio]triphosphate (GTPγS). The mixture was incubated at room temperature for 60 minutes. Then, the mixture was added quickly on a glassfiber filter plate (Multiscreen FB, Millipore, Inc.), and vacuum-filtered. Radioactivity remaining on the […] was measured with a liquid scintillation counter. Agonist activity was calculated from the following formula.

Series [5] has as its target T2, human 5-HT1A receptor. Nature of the series: Test 1: binding activity for human 5-HT1A receptor ([3H]8-OH-DPAT). Particulars: CHO cell membrane fraction. As for the experimental part:
as §1, §2, §3
IC50 value was calculated by Hill analysis (Physiology, 1910, 40, 190-200). Ki of each compound was calculated from the following formula. Binding inhibition constant (Ki)=IC50/(1+S/Kd) wherein S is concentration of ligand; Kd is a binding dissociation constant of ligand to membrane, which is calculated from a saturated binding experiment conducted with the same cell membrane. A small Ki value means strong binding ability to a receptor.

Series [6] has as its target T1, human 5-HT2A receptor. The series can be described thus: Test 3: antagonist activity for human 5-HT2A receptor (aequorin luminescence, CHO-K1 cells). In kind it is cell-based. As to the method:
Test 3: Evaluation of Antagonist Activity for Human 5-HT2A Receptor
Aequorin, Gα16 protein, and each receptor were transiently expressed in CHO-K1 cells (Chinese hamster ovary). […] Each compound dissolved in DMSO was added thereto, and changes in luminescence were measured by FDSS/μCELL functional drug screening system (Hamamatsu Photonics K.K.). Antagonist activity was calculated from the following formula.
Antagonist activity (%)=100×{(Luminescence of well in the presence of 1 nmol/L 5-HT−Luminescence of well containing solvent)−(Luminescence of well in the presence of test compound and 1 nmol/L 5-HT−Luminescence of well containing solvent)}/(Luminescence of well in the presence of 1 nmol/L 5-HT−Luminescence of well containing solvent)

The next series has as its target P-gp (MDR1) (Homo sapiens (Human), UniProt P08183). The series can be described thus: Test 9: P-gp substrate property (NFR, MDCKII and MDR1-MDCKII cells). In kind it is in vitro ADME. Particulars: ratio of Papp B-A/Papp A-B in MDR1-MDCKII cells to that in MDCKII cells. As to the method: Evaluation test for binding was carried out as follows with the CHO cell membrane fraction in which human target receptor was expressed. […] Each mixture was incubated at room temperature, added quickly on a glassfiber filter plate (Multiscreen FB, Millipore, Inc.), and vacuum-filtered. Radioactivity remaining on the filter was measured with a liquid scintillation counter (PerkinElmer, Inc.). Binding inhibition rate was calculated from the following formula.
NFR (Net Flux Ratio), which is an index of P-gp substrate property, can be calculated as follows. MDCKII (Madin-Darby canine kidney strain II) cells and MDR1-MDCKII cells in which MDR1 (multidrug resistance protein 1) was overexpressed were used to measure an apparent permeability coefficient (Papp A-B) from lumen (A) to basement membrane (B) and an apparent permeability coefficient (Papp B-A) from basement membrane (B) to lumen (A) of both MDCKII cells and MDR1-MDCKII cells. NFR (Net Flux Ratio) was calculated from the ratio between Ratio (Papp B-A/Papp A-B) of an apparent permeability coefficient of MDR1-MDCKII cells and Ratio of an apparent permeability coefficient of MDCKII cells.

The nature of series [7]: Test 11: hepatotoxic risk (dansyl glutathione (dGSH) trapping assay). The series is classed as in vitro ADME. As to conditions: human hepatic microsome, 37° C. for 60 minutes, N.D. means below detection limit. As to the method:
Test 11: Evaluation of Hepatotoxic Risk (Dansyl Glutathione (dGSH) Trapping Assay)
The present compound was metabolized in hepatic microsome, and reactive metabolite which reacts with dansyl glutathione (dGSH) was detected and quantified from the resulting metabolite. Measurement was carried out with a screening robot (Tecan) for metabolic reaction, and with a fluorescence detection UPLC system (Waters) for metabolite-dGSH binding concentration.
The present compound was dissolved in DMSO to prepare 10 mmol/L test compound solution. 7.6 mL of potassium phosphate buffer (500 mmol/L, pH 7.4), 1.9 mL of human hepatic microsome (Xenotech, 20 mg protein/mL), and 1.27 mL of pure water were mixed to prepare a microsome solution. To 3.78 mL of the microsome solution was added 0.67 mL of pure water to prepare a microsome (dGSH(−)) solution. To 6.48 mL of the microsome solution was added 1.14 mL of the dGSH solution (20 mmol/L) to prepare a microsome (dGSH(+)) solution. […]
Metabolite-dGSH binding concentration was measured by the following method, using a fluorescence detection UPLC system (Waters). […]
Fluorescence intensity was corrected with the composition of organic solvent at the time of elution because fluorescence intensity changes depending on the composition of organic solvent.

pEC50, pIC50, pKi: −log10 of the molar value.

T2 sequence (P08908 whole entry): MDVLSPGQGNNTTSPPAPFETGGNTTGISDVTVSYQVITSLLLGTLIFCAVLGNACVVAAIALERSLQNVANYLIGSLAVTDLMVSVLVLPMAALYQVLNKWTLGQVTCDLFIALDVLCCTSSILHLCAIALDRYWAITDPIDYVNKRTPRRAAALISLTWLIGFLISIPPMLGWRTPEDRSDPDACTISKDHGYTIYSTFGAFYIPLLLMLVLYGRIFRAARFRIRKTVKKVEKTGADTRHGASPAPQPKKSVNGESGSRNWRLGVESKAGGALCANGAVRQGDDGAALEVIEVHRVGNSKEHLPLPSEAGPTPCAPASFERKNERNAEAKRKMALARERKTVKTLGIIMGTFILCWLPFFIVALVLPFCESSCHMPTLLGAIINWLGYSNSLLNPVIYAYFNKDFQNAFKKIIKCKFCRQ
T1 sequence (P28223 whole entry): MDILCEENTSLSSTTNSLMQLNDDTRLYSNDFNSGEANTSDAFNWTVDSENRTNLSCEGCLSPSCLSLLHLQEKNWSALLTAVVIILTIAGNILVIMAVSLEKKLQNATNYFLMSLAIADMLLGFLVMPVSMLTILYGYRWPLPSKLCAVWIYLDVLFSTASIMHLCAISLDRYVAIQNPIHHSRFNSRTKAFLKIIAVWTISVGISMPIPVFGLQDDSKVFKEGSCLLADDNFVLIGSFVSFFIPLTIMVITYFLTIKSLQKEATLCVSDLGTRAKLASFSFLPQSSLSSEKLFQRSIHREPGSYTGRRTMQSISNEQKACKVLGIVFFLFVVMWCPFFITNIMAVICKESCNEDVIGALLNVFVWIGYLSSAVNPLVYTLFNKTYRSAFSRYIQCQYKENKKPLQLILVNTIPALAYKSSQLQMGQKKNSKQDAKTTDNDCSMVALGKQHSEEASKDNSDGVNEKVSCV
Sequence of P-gp (MDR1) (P08183 whole entry, species assumed): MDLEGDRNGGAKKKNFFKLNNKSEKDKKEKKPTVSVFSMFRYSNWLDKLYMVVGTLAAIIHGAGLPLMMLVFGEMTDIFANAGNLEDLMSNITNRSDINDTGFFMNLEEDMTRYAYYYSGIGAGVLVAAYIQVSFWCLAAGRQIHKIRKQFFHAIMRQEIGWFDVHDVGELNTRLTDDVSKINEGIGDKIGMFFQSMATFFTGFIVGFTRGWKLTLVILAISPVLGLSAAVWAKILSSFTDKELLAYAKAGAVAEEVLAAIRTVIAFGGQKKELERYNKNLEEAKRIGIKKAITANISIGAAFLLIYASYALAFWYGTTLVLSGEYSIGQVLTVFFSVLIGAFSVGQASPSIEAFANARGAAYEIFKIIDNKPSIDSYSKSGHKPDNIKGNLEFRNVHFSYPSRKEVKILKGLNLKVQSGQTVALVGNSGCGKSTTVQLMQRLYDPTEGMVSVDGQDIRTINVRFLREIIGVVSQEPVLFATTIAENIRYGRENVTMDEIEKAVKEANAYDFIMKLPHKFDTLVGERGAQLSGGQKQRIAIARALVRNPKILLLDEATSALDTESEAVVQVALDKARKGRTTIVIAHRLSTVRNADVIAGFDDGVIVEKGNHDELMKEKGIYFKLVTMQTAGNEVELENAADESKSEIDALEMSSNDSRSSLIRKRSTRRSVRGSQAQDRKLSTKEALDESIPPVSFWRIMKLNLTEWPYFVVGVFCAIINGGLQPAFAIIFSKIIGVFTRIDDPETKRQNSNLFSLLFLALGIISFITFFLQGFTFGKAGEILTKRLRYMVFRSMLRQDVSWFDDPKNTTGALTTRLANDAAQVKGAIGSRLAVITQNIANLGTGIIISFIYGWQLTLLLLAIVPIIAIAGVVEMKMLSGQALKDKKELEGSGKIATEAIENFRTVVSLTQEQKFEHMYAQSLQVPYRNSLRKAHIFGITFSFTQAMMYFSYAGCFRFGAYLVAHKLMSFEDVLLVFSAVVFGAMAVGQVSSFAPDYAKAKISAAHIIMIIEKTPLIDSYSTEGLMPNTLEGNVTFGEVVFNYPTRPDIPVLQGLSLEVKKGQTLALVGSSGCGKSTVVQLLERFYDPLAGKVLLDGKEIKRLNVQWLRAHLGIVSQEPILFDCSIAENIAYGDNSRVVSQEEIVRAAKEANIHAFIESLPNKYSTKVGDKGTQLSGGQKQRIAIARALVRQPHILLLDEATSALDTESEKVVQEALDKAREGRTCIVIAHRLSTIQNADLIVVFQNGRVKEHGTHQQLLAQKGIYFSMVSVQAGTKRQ

Consider `Cc1nc2c(o1)C(=O)N(CCN1CCC(c3noc4ccccc34)CC1)CC2` [Example 35, 5-{2-[4-(1,2-Benzoisoxazol-3-yl)piperidin-1-yl]ethyl}-2-methyl-6,7-dihydro[1,3]oxazolo[5,4-c]pyridin-4(5H)-one], for which, in series [1], the “Metabolic stability in human hepatic microsome” value (from here on “Metabolic stability”) is under 0.01 mL/min/mg protein. The Kp uu at 2 h in series [2] was 1.44.

In the case of `COc1ccc2c(n1)C(=O)N(CCN1CCC(c3noc4ccccc34)CC1)CC2` [Example 187], the figures for the pKi on human 5-HT2A receptor [3] and on human 5-HT1A receptor [5] were 7.84 and 8.80, respectively. The “Metabolic stability” value in series [1] is reported as under 0.05 mL/min/mg protein. At human 5-HT1A receptor [4] ([35S]GTPγS binding, CHO cell membrane fraction expressing human 5-HT1A receptor), this compound gave a pEC50 of 7.42. Also, the Emax at 10 µM at human 5-HT1A receptor [4] (agonist activity in the presence of 10 μM compound, relative to 100 μmol/L 5-HT) was 55%. Also, the pIC50 against human 5-HT2A receptor [6] (CHO-K1 cells, aequorin/Gα16, 1 nmol/L 5-HT) was 7.05.

On to `O=C1c2ncccc2CCN1CCN1CCC(c2noc3cc(F)c(F)cc23)CC1` [Example 148], for which the 5-HT2A antagonist activity at human 5-HT2A receptor [6] (at 10 μM) was determined as 45% at 10 μM.

In the case of `Cn1ncc2c1CCCN(CCN1CCC(c3noc4ccccc34)CC1)C2=O` [Example 43], in series [1], the “Metabolic stability” value is listed as under 0.01 mL/min/mg protein. In addition, the “NFR (Net Flux Ratio)” value at P-gp (MDR1) was 2.2. In addition, in series [2], the Kp uu at 2 h amounted to 0.18.

Consider `O=C1c2ncccc2CCN1CCN1CCC(c2noc3ccccc23)CC1` [Example 22, 7-{2-[4-(1,2-Benzoisoxazol-3-yl)piperidin-1-yl]ethyl}-6,7-dihydro-1,7-naphthyridin-8(5H)-one], for which the Metabolite-dGSH binding concentration in series [7] turned out to be 0.089 µM. Also, the “Metabolic stability” value in series [1] came to 0.039 mL/min/mg protein.

In the case of `Cn1cc2c(n1)CCN(CCN1CCN(c3nsc4ccccc34)CC1)C2=O` [Example 36, 5-{2-[4-(1,2-Benzoisothiazol-3-yl)piperazin-1-yl]ethyl}-2-methyl-2,5,6,7-tetrahydro-4H-pyrazolo[4,3-c]pyridin-4-one], the “Metabolic stability” value in series [1] amounted to 0.085 mL/min/mg protein. Moreover, the “NFR (Net Flux Ratio)” value at P-gp (MDR1) came to 1.8. In series [2], the Kp uu at 2 h was 0.08.
